Experimental data taken from patent publication US7501425B1, “Bicyclic pyrimidines and bicyclic 3,4-dihydropyprimidines as inhibitors of cellular proliferation” (Warner Lambert Company, priority 1999, dated 2009).
pIC50: −log10 of the molar value. Counter-ions that a name gives are not always drawn.

Columns and labels:
[1] = target: cdk2/cyclinE (Homo sapiens, UniProt P24941); experiment: Cyclin-dependent kinase assay cdk2/cyclinE; type: biochemical; conditions: for inhibition at 40 µM: read-out: cdk2/E % Inhibition at 40 μM; for pIC50: read-out: cdk2/E IC50
Method: (§1) Cyclin-Dependent Kinase Assays (cdk2/cyclinE, cdk2/cyclinA, cdc2/cyclinB)
(§2) All components except the ATP were added to the wells, and the plate was placed on a plate mixer for 2 minutes. The reaction was begun by addition of [^32P]ATP, and the plate was incubated at 25° C. for 15 minutes. The reaction was terminated by addition of 0.1 mL of 20% TCA. The plate was kept at 4° C. for at least 1 hour to allow the substrate to precipitate. The wells were then washed five times with 0.2 mL of 10% TCA and ^32P incorporation determined with a beta plate counter (Wallac Inc., Gaithersburg, Md.).

[2] = target: cdk2/cyclinA (Homo sapiens, UniProt P24941); experiment: Cyclin-dependent kinase assay cdk2/cyclinA; type: biochemical
Method: as §1, §2

[3] = target: cdc2/cyclinB (Homo sapiens, UniProt P06493); experiment: Cyclin-dependent kinase assay cdc2/cyclinB (cdk1/B); type: biochemical
Chain of cdc2/cyclinB (P06493 whole entry, species assumed): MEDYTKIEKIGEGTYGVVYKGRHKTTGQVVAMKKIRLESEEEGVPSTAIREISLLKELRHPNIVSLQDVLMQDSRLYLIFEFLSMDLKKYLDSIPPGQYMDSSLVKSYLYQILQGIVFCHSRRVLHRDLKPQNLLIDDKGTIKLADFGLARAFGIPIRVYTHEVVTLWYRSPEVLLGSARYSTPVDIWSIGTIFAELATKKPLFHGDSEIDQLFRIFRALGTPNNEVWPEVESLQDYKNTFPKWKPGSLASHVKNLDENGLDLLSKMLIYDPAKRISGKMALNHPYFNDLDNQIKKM
Chain of cdc2/cyclinB (P14635 whole entry partner, species assumed): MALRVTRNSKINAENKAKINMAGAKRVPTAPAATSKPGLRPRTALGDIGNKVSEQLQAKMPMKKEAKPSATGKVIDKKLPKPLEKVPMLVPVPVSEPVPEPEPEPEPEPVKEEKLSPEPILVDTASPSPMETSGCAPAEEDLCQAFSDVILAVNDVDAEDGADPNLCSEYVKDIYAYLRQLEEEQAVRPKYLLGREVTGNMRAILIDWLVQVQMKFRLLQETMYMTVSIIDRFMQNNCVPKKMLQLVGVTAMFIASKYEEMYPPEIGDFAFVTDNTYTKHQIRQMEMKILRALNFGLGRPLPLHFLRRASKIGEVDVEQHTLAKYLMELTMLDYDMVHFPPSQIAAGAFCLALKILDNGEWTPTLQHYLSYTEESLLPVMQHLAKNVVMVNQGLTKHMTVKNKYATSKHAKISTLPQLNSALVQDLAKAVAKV
Method: as §1, §2

[4] = target: cdk4/D (Homo sapiens, UniProt P11802); experiment: Cyclin-Dependent Kinase 4 (cdk4) enzyme assay, 32P incorporation; type: biochemical; conditions: for pIC50: 25 μM ATP, retinoblastoma substrate
Chain of cdk4/D (P11802 whole entry, species assumed): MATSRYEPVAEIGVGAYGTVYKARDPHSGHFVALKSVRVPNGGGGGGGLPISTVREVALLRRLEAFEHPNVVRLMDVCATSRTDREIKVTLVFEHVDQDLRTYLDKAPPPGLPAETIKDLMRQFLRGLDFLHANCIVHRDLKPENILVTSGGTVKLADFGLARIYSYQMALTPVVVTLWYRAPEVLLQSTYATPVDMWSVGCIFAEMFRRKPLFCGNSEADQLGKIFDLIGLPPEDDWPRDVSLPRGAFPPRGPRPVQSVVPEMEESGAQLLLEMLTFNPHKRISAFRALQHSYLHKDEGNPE
Chain of cdk4/D (P24385 whole entry partner, species assumed): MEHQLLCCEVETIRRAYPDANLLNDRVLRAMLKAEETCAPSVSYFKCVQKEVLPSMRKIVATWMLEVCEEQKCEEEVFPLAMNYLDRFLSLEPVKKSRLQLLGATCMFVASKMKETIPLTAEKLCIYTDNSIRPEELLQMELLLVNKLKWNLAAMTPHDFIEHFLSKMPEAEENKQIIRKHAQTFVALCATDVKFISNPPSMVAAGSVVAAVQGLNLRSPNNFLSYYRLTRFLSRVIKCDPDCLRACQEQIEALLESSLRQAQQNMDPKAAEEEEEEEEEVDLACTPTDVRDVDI
Method: A typical assay, for instance, measures inhibitory activity against the cyclin D dependent kinase 4 enzyme (cdk4/D). […] The cdk4 assay was carried out as follows.
Cyclin-Dependent Kinase 4 (cdk4) Assay
Enzyme assays for IC50 determinations (Tables 1 and 2) and kinetic evaluation were performed in 96 well filter plates (Millipore MADVN6550). The total volume was 0.1 mL containing a final concentration of 20 mM TRIS (tris[hydroxymethyl]aminomethane), at pH 7.4, 50 mM NaCl, 1 mM dithiothreitol, 10 mM MgCl2, 25 μM ATP containing 0.25 μCi of [^32P]ATP, 20 ng of cdk4, 1 μg of retinoblastoma, and appropriate dilutions of a compound of the present invention. All components except the ATP were added to the wells, and the plate was placed on a plate mixer for 2 minutes. The reaction was started by adding [^32P]ATP and the plate was incubated at 25° C. for 15 minutes. The reaction was terminated by addition of 0.1 mL of 20% trichloroacetic acid (TCA). The plate was kept at 4° C. for at least 1 hour to allow the substrate to precipitate. The wells were then washed five times with 0.2 mL of 10% TCA and ^32p incorporation was determined with a beta plate counter (Wallac Inc., Gaithersburg. MD).

SMILES | inhibition at 40 µM [1] [%] | melting point | further results
C=CCn1c(=O)c2cnc(Nc3ccc(N4CCN(C)CC4)cc3)nc2n(C(C)C)c1=O [Example 70, 3-Allyl-1-isopropyl-7-[4-(4-methylpiperazin-1-yl)phenylamino]-1H-pyrimido[4,5-d]pyrimidine-2,4-dione] | 0 | 176 to 177 °C | –
O=C1NCc2cnc(Nc3ccc(-n4cccn4)cc3)nc2N1C1CCCC1 [Example 12, 1-Cyclopentyl-7-[4-(pyrazol-1-yl)phenylamino]-3,4-dihydro-pyrimido[4,5-d]pyrimidin-2(1H)-one] | – | – | pIC50 [2]: 5.88; pIC50 [3]: 4.91; pIC50 [4]: 5.74; pIC50 [1]: 5.34
CN1C(=O)NCc2cnc(Nc3ccc(N4CCC(O)CC4)cc3)nc21.O=C(O)C(F)(F)F [Example 29, 7-[4-(4-Hydroxypiperidin-1-yl)phenylamino]-1-methyl-3,4-dihydro-pyrimido[4,5-d]pyrimidin-2(1H)-one; Compound with trifluoroacetic acid] | 28 | 228 to 229 °C (dec.) | –
C=CCn1c(=O)c2cnc(Nc3ccc(OCCN(CC)CC)cc3)nc2n(C(C)C)c1=O [Example 72, 3-Allyl-7-[4-(2-Diethylaminoethoxy)phenylamino]-1-isopropyl-1H-pyrimido[4,5-d]pyrimidine-2,4-dione] | 0 | 90 to 96 °C | –
CN1CCN(c2ccc(Nc3ncc4c(n3)N(C3CC5CCC3C5)C(=O)NC4)cc2)CC1 (stereo not drawn) [Example 27, 1-Bicyclo[2.2.1]hept-2-yl-7-[4-(4-methylpiperazin-1-yl)phenylamino]-3,4-dihydro-pyrimido[4,5-d]pyrimidin-2(1H)-one (exo)] | – | 251 to 254 °C (dec.) | pIC50 [2]: 6.28; pIC50 [3]: 5.01; pIC50 [4]: 6.11; pIC50 [1]: 5.96
O=C1NCc2cnc(Nc3ccc(-n4cccc4)cc3)nc2N1C1CCCC1 [Example 14, 1-Cyclopentyl-7-[4-(pyrrol-1-yl)phenylamino]-3,4-dihydro-pyrimido[4,5-d]pyrimidin-2(1H)-one] | 38 | > 200 °C (dec.) | –
CN1CCN(c2ccc(Nc3ncc4c(n3)N(C)C(=O)NC4)cc2)CC1.O=C(O)C(F)(F)F [Example 28, 1-Methyl-7-[4-(4-methylpiperazin-1-yl)phenylamino]-3,4-dihydro-pyrimido[4,5-d]pyrimidin-2(1H)-one; compound with trifluoroacetic acid] | 22 | 234 to 235 °C (dec.) | inhibition at 40 µM [4]: 15%
Cn1c(=O)ncc2cnc(Nc3ccc(-n4cccn4)cc3)nc21 [Example 47, 1-Methyl-7-[4-(pyrazol-1-yl)phenylamino]pyrimido[4,5-d]pyrimidin-2(1H)-one] | 41 | > 290 °C (dec.) | –
CN1C(=O)NCc2cnc(Nc3ccc(-n4cccn4)cc3)nc21.O=C(O)C(F)(F)F [Example 31, 1-Methyl-7-[4-(pyrazol-1-yl)phenylamino]-3,4-dihydro-pyrimido[4,5-d]pyrimidin-2(1H)-one; Compound with trifluoroacetic acid] | 21 | 250 to 251 °C (dec.) | inhibition at 40 µM [4]: 18%
CC(C)n1c(=O)ncc2cnc(Nc3ccc(N4CCN(C)CC4)cc3)nc21 [Example 40, 1-Isopropyl-7-[4-(4-methylpiperazin-1-yl)phenylamino]pyrimido[4,5-d]pyrimidin-2(1H)-one] | – | 228 to 229 °C (dec.) | inhibition at 40 µM [3]: 42%
CN1CCN(c2ccc(Nc3ncc4cnc(=O)n(C)c4n3)cc2)CC1 [Example 45, 1-Methyl-7-[4-(4-methylpiperazin-1-yl)phenylamino]pyrimido[4,5-d]pyrimidin-2(1H)-one] | 16 | 259 to 260 °C (dec.) | –
CC(C)N1C(=O)NCc2cnc(Nc3ccc(N4CCN(C)CC4)cc3)nc21 [Example 22, 1-Isopropyl-7-[4-(4-methylpiperazin-1-yl)phenylamino]-3,4-dihydro-pyrimido[4,5-d]pyrimidin-2(1H)-one] | 68 | 234 to 237 °C (dec.) | inhibition at 40 µM [3]: 25%
CCN(CC)CCOc1ccc(Nc2ncc3c(n2)N(CC)C(=O)N(c2cc(OC)cc(OC)c2)C3)cc1 (as salt: salt) (hydrate or solvate) [Example 53a, 7-[4-(2-Diethylamino-ethoxy)-phenylamino]-3-(3,5-dimethoxy-phenyl)-1-ethyl-3,4-dihydro-pyrimido[4,5-d]pyrimidin-2(1H)-one] | – | 139 to 141 °C | –
CN(C)C1CCN(c2ccc(Nc3ncc4cnc(=O)n(C)c4n3)cc2)CC1 [Example 46, 7-{4-[4-(Dimethylamino)piperidin-1-yl]phenylamino}-1-methyl-pyrimido[4,5-d]pyrimidin-2(1H)-one] | – | 198 to 202 °C (dec.) | –
COc1ccc(Cn2c(=O)c3cnc(Nc4ccc(N5CCN(C)CC5)cc4)nc3n(C(C)C)c2=O)cc1 [Example 71, 1-Isopropyl-3-(4-methoxybenzyl)-7-[4-(4-methylpiperazin-1-yl)phenylamino]-1H-pyrimido[4,5-d]pyrimidine-2,4-dione] | – | 215 to 216 °C | –
O=c1ncc2cnc(Nc3ccc(N4CCC(O)CC4)cc3)nc2n1C1CCCC1 [Example 33, 1-Cyclopentyl-7-[4-(4-hydroxypiperidin-1-yl)phenylamino]pyrimido[4,5-d]pyrimidin-2(1H)-one] | – | > 185 °C (dec.) | –
CC(C)N1C(=O)NCc2cnc(Nc3ccc(-n4cccn4)cc3)nc21.O=C(O)C(F)(F)F [Example 25, 1-Isopropyl-7-[4-(pyrazol-1-yl)phenylamino]-3,4-dihydro-pyrimido[4,5-d]pyrimidin-2(1H)-one; compound with trifluoroacetic acid] | – | 249 to 252 °C (dec.) | –
CCN(CC)CCCCNc1ncc2c(n1)N(CC)C(=O)N(c1cc(OC)cc(OC)c1)C2 (hydrate or solvate) [Example 53, 7-(4-Diethylamino-butylamino)-3-(3,5-dimethoxy-phenyl)-1-ethyl-3,4-dihydro-pyrimido[4,5-d]pyrimidin-2(1H)-one] | – | 83 to 85 °C | –
CCNc1nc(SC)ncc1C=Nc1cc(OC)cc(OC)c1Cl [Example 61, {5-[(2-Chloro-3,5-dimethoxy-phenylimino)-methyl]-2-methylsulfanyl-pyrimidin-4-yl}-ethyl-amine] | – | 196.5 to 198.5 °C | –
CC(C)N1C(=O)NCc2cnc(Nc3ccc(N4CCC(O)CC4)cc3)nc21 [Example 23, 7-[4-(4-Hydroxypiperidin-1-yl)phenylamino]-1-isopropyl-3,4-dihydro-pyrimido[4,5-d]pyrimidin-2(1H)-one] | – | > 120 °C (dec.) | –
C[S+]([O-])c1ncc2c(n1)N(C1CCCC1)C(=O)NC2 (centres unmarked) [Example 5, 1-Cyclopentyl-7-methanesulfinyl-3,4-dihydro-pyrimido[4,5-d]pyrimidin-2(1H)-one] | – | 235 to 236 °C (dec.) | –
CC(C)N1C(=O)NCc2cnc(Nc3ccc(N4CCC(CCCN5CCOCC5)CC4)cc3)nc21 [Example 26, 1-Isopropyl-7-{4-[4-(3-(morpholin-1-yl)propyl)piperidin-1-yl]phenylamino}-3,4-dihydro-pyrimido[4,5-d]pyrimidin-2(1H)-one] | – | 203 to 205 °C (dec.) | pIC50 [2]: 5.19; pIC50 [3]: < 4.40; pIC50 [1]: 4.57
CCN(CC)CCCCNc1ncc2c(n1)NC(=O)N(c1cc(OC)cc(OC)c1)C2 [Example 52, 7-(4-Diethylamino-butylamino)-3-(3,5-dimethoxy-phenyl)-3,4-dihydro-pyrimido[4,5-d]pyrimidin-2(1H)-one] | – | 203 to 207 °C | –
CN1CCN(c2ccc(Nc3ncc4cnc(=O)n(C5CCCC5)c4n3)cc2)CC1 [Example 32, 1-Cyclopentyl-7-[4-(4-methylpiperazin-1-yl)phenylamino]pyrimido-[4,5-d]pyrimidin-2(1H)-one] | – | 220 to 225 °C (dec.) | –
